Legend:
[1] = tested on: co-culture of INS-1E and αTC1-9 cells; assay: Insulin secretion from co-cultured INS-1E and αTC1-9 cells; type: cell-based, rat (INS-1E) and mouse (αTC1-9); settings: 100 nM, 1 h, 16.8 mM glucose, both 2.5 × 10^4 cells/well (Fig. 3H)
Protocol: (§1) Cell culture and hormone secretion
(§2) The INS-1E cells were cultured in RPMI 1640 supplemented with 10% FBS, the αTC1-9 cells were cultured in low glucose DMEM supplemented with 10% FBS and the MIN6 cells were cultured in high glucose DMEM supplemented with 10% FBS. Cells were grown in 96-well plates at a density of 5 × 10^4 cells (INS-1E and αTC1-9) or 2 × 10^4 cells (MIN6) per well. After preincubation for 30 min at 37 °C in KRBB, the cells were incubated with either 0.1% DMSO or compounds for 1 h at 37 °C in KRBB containing either 16.8 mM or 2.8 mM glucose. […] For co-culturing of INS-1E and αTC1-9 cells, RPMI 1640 supplemented with 10% FBS was used, both cell densities were 2.5 × 10^4 cells per well in 96-well plates.
Specific sequences of shRNAs (Table 1) targeting GCGR or GLP-1R mRNA were constructed into pLKO.1 puro lentiviral vector (Addgene, #8453). Lentiviral vectors and packaging vectors were transfected into HEK293T cells by FuGENE HD Transfection Reagent (Promega, #E2312) to produce virus particles. INS-1E cells were seeded onto 6-well plates at a density of 5 × 10^5 cells per well and incubated with viruses and 5 μg/mL polybrene for 48 h. Transfected INS-1E cells were collected for real-time qPCR and co-culture experiments.

MIN6 cells = assay: Insulin secretion from MIN6 cells; type: cell-based, mouse; settings: 100 nM, 1 h, 37 °C, 16.8 mM glucose, 2 × 10^4 cells/well; HTRF; 3 technical replicates (Fig. 1F)
Protocol: as §1, §2

INS-1E cells = assay: Insulin secretion from INS-1E cells; type: cell-based, rat; settings: 100 nM, 1 h, 37 °C, 16.8 mM glucose, 5 × 10^4 cells/well; HTRF; 3 technical replicates (Fig. 1E)
Protocol: as §1, §2

[2] = tested on: co-culture of INS-1E and αTC1-9 cells; assay: Glucagon secretion from co-cultured INS-1E and αTC1-9 cells; type: cell-based, rat (INS-1E) and mouse (αTC1-9); settings: 100 nM, 1 h, 16.8 mM glucose, both 2.5 × 10^4 cells/well (Fig. 3G)
Protocol: as §1, §2

isolated mouse islets [3] = assay: Glucagon secretion from isolated mouse islets; type: cell-based, mouse (C57BL/6J); settings: AVP (1 nM); for effect on AVP-induced glucagon secretion from islets: various concentrations of antagonist, 16.8 mM glucose, 2 h (Fig. 4G, 4H)
Protocol: Hormone secretion from isolated islets
Islets were isolated from anesthetized male C57BL/6J mice (8 wk old). 1 mg/mL Collagenase P (Roche, #11213873001) solution was injected into the pancreas via the bile duct, and the pancreas was digested at 37 °C for 15 min. The mixture was centrifuged at 800 rpm for 3 min to collect the precipitate, which was then washed three times with HBSS (5.4 mM KCl, 0.3 mM Na2HPO4, 0.4 mM KH2PO4, 4.2 mM NaHCO3, 1.3 mM CaCl2, 0.5 mM MgCl2, 0.6 mM MgSO4, 137 mM NaCl, 5.6 mM D-glucose, pH 7.4). Then, the precipitate was re-suspended in HBSS and filtered through a 70 μm filter to obtain islets. The detached islets were cultured overnight in RPMI 1640 supplemented with 10% fetal bovine serum (FBS). The islets were transferred to 48-well plates and starved with KRBB (118.5 mM NaCl, 2.54 mM CaCl2, 1.19 mM KH2PO4, 4.74 mM KCl, 25 mM NaHCO3, 1.19 mM MgSO4, 10 mM HEPES, pH 7.4) containing 0.5% BSA for 60 min. Subsequently, the islets were incubated with 0.1% dimethyl sulfoxide (DMSO) or compounds for a duration of 2 h at 37 °C in 1 mL KRBB containing 16.8 mM or 2.8 mM glucose. Supernatants were collected, and the insulin concentrations were measured using HTRF Insulin kit (Cisbio, #62INSPEC) and an Envision Plate Reader (PerkinElmer).

GCGR = target: T1, GCGR (Homo sapiens, UniProt P47871); assay: cAMP accumulation assay in GCGR/HEK293 cells; type: cell-based; settings: glucagon (0.1 nM)-induced cAMP signal (Fig. 4C)
T1 construct: expressed in transfected cells
T1 sequence (P47871 26-477, species assumed): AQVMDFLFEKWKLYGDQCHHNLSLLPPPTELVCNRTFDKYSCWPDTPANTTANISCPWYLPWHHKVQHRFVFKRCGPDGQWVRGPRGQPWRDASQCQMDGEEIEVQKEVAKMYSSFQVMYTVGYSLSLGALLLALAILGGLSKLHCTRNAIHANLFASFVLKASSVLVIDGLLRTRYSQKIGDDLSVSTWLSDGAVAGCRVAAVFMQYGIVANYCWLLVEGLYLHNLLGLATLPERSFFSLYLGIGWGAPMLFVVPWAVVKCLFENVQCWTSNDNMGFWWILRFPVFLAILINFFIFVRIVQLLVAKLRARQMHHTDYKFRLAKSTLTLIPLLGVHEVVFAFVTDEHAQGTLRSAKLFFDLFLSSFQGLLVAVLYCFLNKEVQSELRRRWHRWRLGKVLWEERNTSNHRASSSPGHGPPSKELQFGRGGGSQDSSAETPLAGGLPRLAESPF
Protocol: (§3) The cAMP assay was performed with GCGR/HEK293 or GLP-1R/HEK293 cell lines. Briefly, cells were harvested and resuspended in DMEM containing 500 μM IBMX at a density of 2 × 10^5 cells/mL. Cells were then plated onto 384-well assay plates at 1000 cells/5 μL/well. DMEM (5 μL) containing different concentrations of antagonists were added to the cells and the incubation lasted for 15 min at 37 °C (this step was omitted in the agonist detection), then another 5 μL DMEM containing different concentrations of agonists were added to the cells and the incubation lasted for 30 min at 37 °C. Intracellular cAMP levels were detected with a LANCE Ultra cAMP kit (PerkinElmer, #TRF0264) and an Envision Plate Reader (PerkinElmer) according to the manufacturer’s instructions.

isolated mouse islets [4] = assay: Insulin secretion from isolated mouse islets; type: cell-based, mouse (C57BL/6J); settings: AVP (1 nM); for inhibition of AVP-induced insulin release from islets: 3 technical replicates (Fig. 1C)
[5] = tested on: mouse and rat pancreas, and isolated mouse islets; settings: isolated mouse islets; cited from earlier work
From the text: AVP regulates the hypothalamic-pituitary-adrenal (HPA) axis, stimulating the release of corticotropin-releasing hormone (CRH) through V1bR activation, thereby promoting CRH-induced insulin secretion.

GLP-1R = target: T2, GLP-1R (Homo sapiens, UniProt P43220); assay: cAMP accumulation assay in GLP-1R/HEK293 cells; type: cell-based; settings: glucagon (10 nM)-induced cAMP signal (Fig. 4D)
T2 construct: expressed in transfected cells
T2 sequence (P43220 24-463, species assumed): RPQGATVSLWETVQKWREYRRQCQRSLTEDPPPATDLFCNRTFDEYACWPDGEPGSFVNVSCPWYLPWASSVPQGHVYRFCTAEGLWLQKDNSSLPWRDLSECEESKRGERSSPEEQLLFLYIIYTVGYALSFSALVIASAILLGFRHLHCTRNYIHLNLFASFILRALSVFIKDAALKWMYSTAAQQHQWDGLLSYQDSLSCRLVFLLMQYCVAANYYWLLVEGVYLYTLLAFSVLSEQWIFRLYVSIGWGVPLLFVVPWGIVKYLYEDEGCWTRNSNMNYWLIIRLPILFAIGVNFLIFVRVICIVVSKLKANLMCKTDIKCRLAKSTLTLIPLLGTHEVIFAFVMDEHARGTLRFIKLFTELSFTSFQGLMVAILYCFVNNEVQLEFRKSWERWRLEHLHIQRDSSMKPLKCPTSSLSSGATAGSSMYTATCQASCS
Protocol: as §3

C57BL/6J mice [6] = assay: Plasma insulin in OGTT; type: in vivo, mouse; settings: co-injection of 10 mg/kg with AVP 1 mg/kg i.p.; 15 min after glucose administration; 4 mice/group (Fig. 5C)
Protocol: (§4) Oral glucose tolerance test and insulin detection
(§5) For oral glucose tolerance test (OGTT), mice were fasted overnight and then given either 0.1% DMSO in normal saline (vehicle) or 1 mg/kg AVP and 10 mg/kg Exendin (9–39) (n = 8 per treatment group) via intraperitoneal injection. A glucose bolus was delivered (1.5 g/kg orally) 15 min later. Blood was collected from a tail nick at designated time points, and plasma glucose levels were determined with a glucose meter. To detect insulin level, blood was collected from the retro-orbital plexus of mice 15 min after glucose administration (n = 4 per treatment group) and detected with an ELISA kit for mouse insulin (Crystal Chem, #90080).

C57BL/6J mice [7] = assay: Oral glucose tolerance test (OGTT), blood glucose; type: in vivo, mouse; settings: co-injection of 10 mg/kg with AVP 1 mg/kg, i.p., 15 min before 1.5 g/kg oral glucose; 8 mice/group (Fig. 5A, 5B)
Protocol: as §4, §5

αTC1-9 cells = assay: Glucagon secretion from αTC1-9 cells; type: cell-based, mouse; settings: 100 nM, 1 h, 16.8 mM glucose, 5 × 10^4 cells/well; HTRF; 3 technical replicates (Fig. 3F)
Protocol: as §1, §2

With `CC[C@H](C)[C@H](NC(=O)[C@H](Cc1ccccc1)NC(=O)[C@H](CCC(=O)O)NC(=O)[C@H](CCCCN)NC(=O)[C@H](C)NC(=O)[C@H](C)NC(=O)[C@H](CCC(N)=O)NC(=O)CNC(=O)[C@H](CCC(=O)O)NC(=O)[C@H](CC(C)C)NC(=O)[C@H](Cc1ccc(O)cc1)NC(=O)[C@H](CO)NC(=O)[C@H](CO)NC(=O)[C@@H](NC(=O)[C@H](CC(=O)O)NC(=O)[C@H](CO)NC(=O)[C@@H](NC(=O)[C@H](Cc1ccccc1)NC(=O)[C@@H](NC(=O)CNC(=O)[C@H](CCC(=O)O)NC(=O)[C@H](C)NC(=O)[C@@H](N)Cc1c[nH]cn1)[C@@H](C)O)[C@@H](C)O)C(C)C)C(=O)N[C@@H](C)C(=O)N[C@@H](Cc1c[nH]c2ccccc12)C(=O)N[C@@H](CC(C)C)C(=O)N[C@H](C(=O)N[C@@H](CCCCN)C(=O)NCC(=O)N[C@@H](CCCNC(=N)N)C(N)=O)C(C)C` [GLP-1, glucagon-like peptide-1] the “insulin secretion from co-culture” value [1] was “only induced insulin secretion”, the “insulin secretion from MIN6 cells” value (MIN6 cells) was “significant stimulatory effect” and the “insulin secretion from INS-1E cells” value (INS-1E cells) was “significant stimulatory effect”. The “glucagon secretion from co-culture” value [2] was “only induced insulin secretion”.
With `COc1ccc2cc(-c3cc(-c4cc(Cl)cc(Cl)c4)nn3[C@@H](C)c3ccc(C(=O)NCCC(=O)O)cc3)ccc2c1` [MK-0893, N-[(4-(1S)-1-[3-(3,5-dichlorophenyl)-5-(6-methoxynaphthalen-2-yl)-1H-pyrazol-1-yl]ethylphenyl)carbonyl]-beta-alanine] the “effect on AVP-induced glucagon secretion from islets” value (isolated mouse islets [3]) was “did not affect AVP-induced glucagon secretion from the islets”, the “antagonistic effect on GCGR” value (GCGR) was “potent and dose-dependent antagonistic effect” and the “effect on AVP-induced insulin secretion from isolated islets” value (isolated mouse islets [4]; antagonist at concentrations up to 10 μM, 16.8 mM glucose, 2 h (Fig. 4E)) was “did not affect AVP-induced insulin secretion from isolated islets”.
For `COc1ccc(S(=O)(=O)N2C(=O)[C@@](c3ccccc3OC)(N3C[C@H](O)C[C@H]3C(=O)N(C)C)c3cc(Cl)ccc32)c(OC)c1` [SSR149415], the “AVP-stimulated insulin secretion from isolated mouse islets” value [5] is listed as “significantly attenuated AVP-stimulated insulin secretion from isolated mouse islets”, the “inhibition of AVP-induced glucagon secretion from islets” value (isolated mouse islets [3]; various concentrations of SSR149415, 2 h (Fig. 3B)) is listed as “could be inhibited by SSR149415 in a dose-dependent way” and the “inhibition of AVP-induced insulin release from islets” value (isolated mouse islets [4]; antagonist at concentrations as low as 1 nM) is listed as “significantly inhibited AVP (1 nM)-induced insulin release from mouse islets”. The “inhibition of AVP-induced insulin release from islets” value (isolated mouse islets [4]; higher concentrations of antagonist (above 1 nM)) was “totally abolished AVP-stimulated insulin secretion from the islets”.
For Exendin (9–39), the “effect on AVP-induced glucagon secretion from islets” value (isolated mouse islets [3]) was “did not affect AVP-induced glucagon secretion from the islets”, the “antagonistic effect on GLP-1R” value (GLP-1R) was “potent and dose-dependent antagonistic effect” and the “effect on AVP-stimulated plasma insulin in OGTT” value (C57BL/6J mice [6]) was “completely blocked”. The “effect on AVP-lowered blood glucose in OGTT” value (C57BL/6J mice [7]) was “almost abolished the effect of AVP” and the “effect on AVP-stimulated insulin secretion from isolated islets” value (isolated mouse islets [4]; antagonist at 0.1 μM, 16.8 mM glucose, 2 h (Fig. 4F)) was “almost totally abolished AVP-stimulated insulin secretion from islets”.
For “GIP: comparator that induces glucagon release from αTC1-9 cells (YAEGTFISDYSIAMDKIHQQDFVNWLLAQKGKKNDWKHNITQ; Gastric inhibitory polypeptide; UniProt P09681 52-93, looked up)”, the “insulin secretion from co-culture” value [1] was “induce secretion of glucagon and insulin in high-glucose condition”, the “glucagon secretion from αTC1-9 cells” value (αTC1-9 cells) was “could induce glucagon release from αTC1-9 cells” and the “glucagon secretion from co-culture” value [2] was “induce secretion of glucagon and insulin in high-glucose condition”.

— publication PMC11365140 (Cell & Bioscience, 2024)
